{"source": "PubChem BioAssay AID2060912", "about": "(Molecular Pharmacology Branch, DTP, NCI, 2025)", "test_system": "HUVEC/MSC spheroids viability", "assay": "Human HUVEC/MSC cell line growth inhibition [KRAS2];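 for viability, T/C: percent of DMSO vehicle control luminescence so 100% = untreated viability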", "settings": "for IC50: curve of first compound; for viability, T/C: stronger effect = lower value", "summary_of_the_method": "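Concentration ranges start near each agent's clinical Cmax, or at 10 microM if none is established, and fall by half-log increments. These ranges are tested as single agents and combinations on endothelial/mesenchymal stem cell spheroids lacking tumour cells.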"}
{"smiles": "CN(C)C/C=C/C(=O)Nc1cc2c(Nc3ccc(F)c(Cl)c3)ncnc2cc1O[C@H]1CCOC1", "note": "+ CNCc1ccccc1-c1csc(C(C)Nc2nc(C)nc3cc(OC)c(OC)cc23)c1", "values": [{"measurement": "IC50", "setting": "second compound 0.0316 µM", "value": "> 100", "unit": "nM"}, {"measurement": "IC50", "setting": "second compound 0.1 µM", "value": "> 100", "unit": "nM"}, {"measurement": "IC50", "setting": "second compound 0.316 µM", "value": "> 100", "unit": "nM"}, {"measurement": "IC50", "setting": "second compound 1 µM", "value": "> 100", "unit": "nM"}, {"measurement": "IC50", "setting": "second compound 3.16 µM", "value": "> 100", "unit": "nM"}, {"measurement": "IC50", "setting": "second compound 10 µM", "value": "< 0.316", "unit": "nM"}, {"measurement": "viability, T/C", "setting": "second compound 0.0316 µM, first compound 0.000316 µM", "value": 100, "unit": "%"}, {"measurement": "viability, T/C", "setting": "second compound 0.0316 µM, first compound 0.001 µM", "value": 89.5, "unit": "%"}, {"measurement": "viability, T/C", "setting": "second compound 0.0316 µM, first compound 0.00316 µM", "value": 90.5, "unit": "%"}, {"measurement": "viability, T/C", "setting": "second compound 0.0316 µM, first compound 0.01 µM", "value": 91.2, "unit": "%"}, {"measurement": "viability, T/C", "setting": "second compound 0.0316 µM, first compound 0.0316 µM", "value": 74, "unit": "%"}, {"measurement": "viability, T/C", "setting": "second compound 0.0316 µM, first compound 0.1 µM", "value": 86, "unit": "%"}, {"measurement": "viability, T/C", "setting": "second compound 0.1 µM, first compound 0.000316 µM", "value": 89.7, "unit": "%"}, {"measurement": "viability, T/C", "setting": "second compound 0.1 µM, first compound 0.001 µM", "value": 105, "unit": "%"}, {"measurement": "viability, T/C", "setting": "second compound 0.1 µM, first compound 0.00316 µM", "value": 77.4, "unit": "%"}, {"measurement": "viability, T/C", "setting": "second compound 0.1 µM, first compound 0.01 µM", "value": 76.7, "unit": "%"}, {"measurement": "viability, T/C", "setting": "second compound 0.1 µM, first compound 0.0316 µM", "value": 89.5, "unit": "%"}, {"measurement": "viability, T/C", "setting": "second compound 0.1 µM, first compound 0.1 µM", "value": 74.8, "unit": "%"}, {"measurement": "viability, T/C", "setting": "second compound 0.316 µM, first compound 0.000316 µM", "value": 85.2, "unit": "%"}, {"measurement": "viability, T/C", "setting": "second compound 0.316 µM, first compound 0.001 µM", "value": 93.2, "unit": "%"}, {"measurement": "viability, T/C", "setting": "second compound 0.316 µM, first compound 0.00316 µM", "value": 72.5, "unit": "%"}, {"measurement": "viability, T/C", "setting": "second compound 0.316 µM, first compound 0.01 µM", "value": 78.1, "unit": "%"}, {"measurement": "viability, T/C", "setting": "second compound 0.316 µM, first compound 0.0316 µM", "value": 96.6, "unit": "%"}, {"measurement": "viability, T/C", "setting": "second compound 0.316 µM, first compound 0.1 µM", "value": 68.8, "unit": "%"}, {"measurement": "viability, T/C", "setting": "second compound 1 µM, first compound 0.000316 µM", "value": 78.3, "unit": "%"}, {"measurement": "viability, T/C", "setting": "second compound 1 µM, first compound 0.001 µM", "value": 73.7, "unit": "%"}, {"measurement": "viability, T/C", "setting": "second compound 1 µM, first compound 0.00316 µM", "value": 86.5, "unit": "%"}, {"measurement": "viability, T/C", "setting": "second compound 1 µM, first compound 0.01 µM", "value": 73.5, "unit": "%"}, {"measurement": "viability, T/C", "setting": "second compound 1 µM, first compound 0.0316 µM", "value": 72.7, "unit": "%"}, {"measurement": "viability, T/C", "setting": "second compound 1 µM, first compound 0.1 µM", "value": 59.8, "unit": "%"}, {"measurement": "viability, T/C", "setting": "second compound 3.16 µM, first compound 0.000316 µM", "value": 89.2, "unit": "%"}, {"measurement": "viability, T/C", "setting": "second compound 3.16 µM, first compound 0.001 µM", "value": 94.4, "unit": "%"}, {"measurement": "viability, T/C", "setting": "second compound 3.16 µM, first compound 0.00316 µM", "value": 80.4, "unit": "%"}, {"measurement": "viability, T/C", "setting": "second compound 3.16 µM, first compound 0.01 µM", "value": 89.5, "unit": "%"}, {"measurement": "viability, T/C", "setting": "second compound 3.16 µM, first compound 0.0316 µM", "value": 65.2, "unit": "%"}, {"measurement": "viability, T/C", "setting": "second compound 3.16 µM, first compound 0.1 µM", "value": 84.4, "unit": "%"}, {"measurement": "viability, T/C", "setting": "second compound 10 µM, first compound 0.000316 µM", "value": 0.33, "unit": "%"}, {"measurement": "viability, T/C", "setting": "second compound 10 µM, first compound 0.001 µM", "value": 0.35, "unit": "%"}, {"measurement": "viability, T/C", "setting": "second compound 10 µM, first compound 0.00316 µM", "value": 0.37, "unit": "%"}, {"measurement": "viability, T/C", "setting": "second compound 10 µM, first compound 0.01 µM", "value": 0.33, "unit": "%"}, {"measurement": "viability, T/C", "setting": "second compound 10 µM, first compound 0.0316 µM", "value": 0.37, "unit": "%"}, {"measurement": "viability, T/C", "setting": "second compound 10 µM, first compound 0.1 µM", "value": 0.65, "unit": "%"}]}
